Measurements: US6608086B2, “Dihydropyridines and new uses thereof” (Synaptic Pharmaceutical Corporation, priority 1993, dated 2003)
pKi: −log10 of the molar value. Where two headings read alike, the source gives them in different places.

Tests used:
[1] = biological target: T1, α1C Human Adrenergic Receptor (Homo sapiens, UniProt P35348); assay: Radioligand binding, [3H]prazosin, cloned human α1C adrenergic receptor
T1 construct: The entire coding region of α1C (1401 bp); expressed in transfected cells
T1 sequence (P35348 1-466): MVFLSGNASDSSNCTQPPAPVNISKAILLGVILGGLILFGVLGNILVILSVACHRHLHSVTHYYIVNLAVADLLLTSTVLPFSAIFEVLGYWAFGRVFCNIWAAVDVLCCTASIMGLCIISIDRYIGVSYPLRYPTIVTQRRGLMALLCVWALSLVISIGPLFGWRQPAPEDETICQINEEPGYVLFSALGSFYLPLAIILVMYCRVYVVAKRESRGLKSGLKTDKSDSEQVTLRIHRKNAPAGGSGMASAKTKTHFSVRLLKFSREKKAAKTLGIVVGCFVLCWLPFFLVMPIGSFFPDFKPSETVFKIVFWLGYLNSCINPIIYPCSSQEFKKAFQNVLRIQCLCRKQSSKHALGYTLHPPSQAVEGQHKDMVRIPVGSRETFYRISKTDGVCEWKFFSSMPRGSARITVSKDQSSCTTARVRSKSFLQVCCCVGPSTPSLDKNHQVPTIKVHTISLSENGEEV
Method: (§1) The protocols for these experiments are given below.
(§2) These cell lines were prepared by transfecting the cloned cDNA or cloned genomic DNA or constructs containing both genomic DNA and cDNA encoding the human α-adrenergic receptors as follows:
α1C Human Adrenergic Receptor:
The construct involved ligating three partial overlapping fragments: a 5′, 0.6 kb HincII genomic clone, a central 1.8 EcoRI hippocampal cDNA clone, and a 3′ 0.6Kb PstI genomic clone. The hippocampal cDNA fragment overlaps with the 5′ and 3′ genomic clones so that the HincII and PstI sites at the 5′ and 3′ ends of the cDNA clone, respectively, were utilized for ligation. This full-length clone was cloned into the KpnI site of the expression vector, using the 5′ and 3′ KpnI sites of the fragment, derived from vector (i.e., pBluescript) and 3′-untranslated sequences, respectively. Stable cell lines were selected as described above.
(§3) Radioligand Binding Assays:
(§4) Transfected cells from culture flasks were scraped into 5 ml of 5 mM Tris-HCl, 5 mM EDTA, pH 7.5, and lysed by sonication. The cell lysates were centrifuged at 1000 rpm for 5 min at 4° C., and the supernatant was centrifuged at 30,000× g for 20 min at 4° C. The pellet was suspended in 50 mM Tris-HCl, 1 mM MgCl2, and 0.1% ascorbic acid at pH 7.5. Binding of the α1 antagonist [^3H]prazosin (0.5 nM, specific activity 76.2 Ci/mmol) to membrane preparations of LM(tk−) cells was done in a final volume of 0.25 ml and incubated at 37° C. for 20 min. Nonspecific binding was determined in the presence of 10 μM phentolamine. The reaction was stopped by filtration through GF/B filters using a cell harvester.

[2] = biological target: T2, α1B Human Adrenergic Receptor (Homo sapiens, UniProt P35368); assay: Radioligand binding, [3H]prazosin, cloned human α1B adrenergic receptor
T2 construct: The entire coding region of α1B (1563 bp); expressed in transfected cells
T2 sequence (P35368 1-520): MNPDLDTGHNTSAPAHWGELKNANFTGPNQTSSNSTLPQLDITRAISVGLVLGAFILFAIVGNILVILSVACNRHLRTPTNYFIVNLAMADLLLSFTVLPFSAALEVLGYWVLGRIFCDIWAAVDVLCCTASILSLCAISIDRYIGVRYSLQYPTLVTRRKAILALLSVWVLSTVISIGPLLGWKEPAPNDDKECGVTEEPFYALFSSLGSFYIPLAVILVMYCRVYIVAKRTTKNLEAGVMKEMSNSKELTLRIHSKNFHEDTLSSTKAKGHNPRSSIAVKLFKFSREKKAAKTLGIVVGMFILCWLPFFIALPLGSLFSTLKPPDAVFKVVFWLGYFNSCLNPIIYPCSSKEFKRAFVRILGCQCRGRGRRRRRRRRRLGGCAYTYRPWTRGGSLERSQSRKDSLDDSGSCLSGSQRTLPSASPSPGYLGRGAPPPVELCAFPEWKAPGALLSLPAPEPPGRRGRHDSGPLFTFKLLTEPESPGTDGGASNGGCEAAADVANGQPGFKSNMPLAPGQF
Method: as §1, §2
α1B Human Adrenergic Receptor:
The construct involved ligating the full-length containing EcoRI brainstem cDNA fragment from λ ZapII into the expression vector. Stable cell lines were selected as described above.
as §3, §4

[3] = biological target: T3, α1A Human Adrenergic Receptor (Homo sapiens, UniProt P25100); assay: Radioligand binding, [3H]prazosin, cloned human α1A adrenergic receptor; settings: [3H]prazosin
T3 construct: The entire coding region of α1A (1719 bp); expressed in transfected cells
T3 sequence (P25100 1-572): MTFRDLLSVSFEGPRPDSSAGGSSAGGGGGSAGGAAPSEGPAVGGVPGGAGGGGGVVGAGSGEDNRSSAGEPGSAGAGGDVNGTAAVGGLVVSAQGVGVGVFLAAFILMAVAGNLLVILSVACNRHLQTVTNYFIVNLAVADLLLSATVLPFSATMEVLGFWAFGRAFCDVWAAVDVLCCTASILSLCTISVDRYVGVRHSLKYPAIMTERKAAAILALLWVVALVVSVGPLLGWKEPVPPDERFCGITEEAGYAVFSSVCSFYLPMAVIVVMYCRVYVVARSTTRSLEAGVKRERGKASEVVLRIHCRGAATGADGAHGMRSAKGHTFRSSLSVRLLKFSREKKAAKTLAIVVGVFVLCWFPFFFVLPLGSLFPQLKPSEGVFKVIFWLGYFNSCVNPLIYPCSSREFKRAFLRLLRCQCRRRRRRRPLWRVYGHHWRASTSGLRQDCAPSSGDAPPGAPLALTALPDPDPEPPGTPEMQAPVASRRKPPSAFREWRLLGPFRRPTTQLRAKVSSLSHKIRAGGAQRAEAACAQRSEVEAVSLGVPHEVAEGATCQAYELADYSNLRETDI
Outline: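 Filter-bound radioactivity measured [3H]prazosin (0.5 nM) binding to membranes of LM(tk−) cells expressing the human α1A receptor after 20 min at 37° C. Phentolamine at 10 μM set nonspecific binding.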

[4] = cloned human receptor, LM(tk-) cell membranes, mean, read-out: PKi alpha-1 1c (converted)
[5] = cloned human receptor, LM(tk-) cell membranes, mean, read-out: PKi alpha-1 1b (converted)
[6] = cloned human receptor, LM(tk-) cell membranes, mean, read-out: PKi alpha-1 1a (converted)

| SMILES | melting point [°C] | pKi ([1]; PKi alpha-1 1c, cloned human receptor, LM(tk-) cell membranes, mean) | pKi ([2]; PKi alpha-1 1b, cloned human receptor, LM(tk-) cell membranes, mean) | pKi ([3]; PKi alpha-1 1a, cloned human receptor, LM(tk-) cell membranes, mean) | Ki [1, 4] [nM] | Ki [2, 5] [nM] | Ki [3, 6] [nM] | Ki ([1]; cloned human α1C receptor, LM(tk−) cell membranes, read-out: pKi alpha-1 1c (converted)) [nM] | Ki ([2]; cloned human α1B receptor, LM(tk−) cell membranes, read-out: pKi alpha-1 1b (converted)) [nM] | Ki ([3]; cloned human α1A receptor, LM(tk−) cell membranes, read-out: pKi alpha-1 1a (converted)) [nM] |
| --- | --- | --- | --- | --- | --- | --- | --- | --- | --- | --- |
| CC1=C(C(N)=O)C(c2ccc([N+](=O)[O-])cc2)C(C(=O)NCCCN2CCC(c3ccccc3)(c3ccccc3)CC2)=C(CCCCCN)N1 (centres unmarked) [Example 169, 2-(5-Aminopentyl)-5-carboxamido-1,4-dihydro-6-methyl-4-(4-nitrophenyl)-3-{N-[3-(4,4-diphenylpiperidin-1-yl)propyl]}carboxamidopyridine] | 75 to 78 | 8.14 | 6.64 | 6.29 | – | – | – | – | – | – |
| CCOC(=O)C1(c2ccccc2)CCN(CCCNC(=O)C2=C(CC)NC(CC)=C(C(=O)NC)C2c2ccc([N+](=O)[O-])cc2)CC1 (centres unmarked) [Example 181, 2,6-Diethyl-1,4-dihydro-3-{N-[3-(4-ethoxycarbonyl-4-phenylpiperidin-1-yl)propyl]}carboxamido-5-(N-methyl) carboxamido-4-(4-nitrophenyl)pyridine] | 95 to 97 | – | – | – | 4.07 | 1070 | 3470 | – | – | – |
| CCOC(=O)C1(c2ccccc2)CCN(CCCNC(=O)C2=C(COCCN=[N+]=[N-])NC(CC)=C(C(=O)O)C2c2ccc([N+](=O)[O-])cc2)CC1 (centres unmarked) [Example 189] | 109 to 110 | – | – | – | 26.3 | 1410 | 4680 | – | – | – |
| CNC(=O)C1=C(C)NC(C)=C(C(=O)NCCCN2CCC(C(=O)OC)(c3ccccc3)CC2)C1c1ccc2c(c1)OCCO2 (centres unmarked) [Example 164, 4-(3,4-Ethylenedioxyphenyl)-1,4-Dihydro-3-{N-[3-(4-methoxycarbonyl-4-phenylpiperidin-1-yl)propyl]}carboxamido-2,6-dimethyl-5-[(N-methyl)carboxamido]pyridine] | 101 to 104 | – | – | – | 22.9 | 1780 | 2950 | – | – | – |
| CCNC(=O)C1=C(CC)NC(COCCN=[N+]=[N-])=C(C(=O)NCCCN2CCC(c3ccccc3)(c3ccccc3)CC2)C1c1ccc([N+](=O)[O-])cc1 (centres unmarked) [Example 145, 2-((2-Azidoethyl)oxy)methyl-6-methyl-6-ethyl-5-(N-ethyl) carboxamido-1,4-dihydro-4-(4-nitro)phenyl-3-(N-(3-(4,4-diphenylpiperidin-1-yl)propyl))carboxamidopyridine] | 82 to 87 | – | – | – | – | – | – | 6.17 | 324 | 380 |
